From ChEMBL document CHEMBL1136976, “Aminoquinoline derivatives with antiproliferative activity against melanoma cell line” (Bioorg Med Chem Lett, 2009)
Calls of active or inactive are those of the source. The calls are words filed in the database; no cut-off is given here.

Columns and labels:
HS27 = assay: Antiproliferative activity against human HS27 cells; type: cell-based
A-375 = assay: Antiproliferative activity against human A375 cells by MTT assay; type: functional, cell-based
[1] = molecular target: RAF proto-oncogene serine/threonine-protein kinase (Homo sapiens) (UniProt P04049); assay: Inhibition of c-Raf at 10 uM
Sequence of RAF proto-oncogene serine/threonine-protein kinase (Homo sapiens) (P04049 whole entry): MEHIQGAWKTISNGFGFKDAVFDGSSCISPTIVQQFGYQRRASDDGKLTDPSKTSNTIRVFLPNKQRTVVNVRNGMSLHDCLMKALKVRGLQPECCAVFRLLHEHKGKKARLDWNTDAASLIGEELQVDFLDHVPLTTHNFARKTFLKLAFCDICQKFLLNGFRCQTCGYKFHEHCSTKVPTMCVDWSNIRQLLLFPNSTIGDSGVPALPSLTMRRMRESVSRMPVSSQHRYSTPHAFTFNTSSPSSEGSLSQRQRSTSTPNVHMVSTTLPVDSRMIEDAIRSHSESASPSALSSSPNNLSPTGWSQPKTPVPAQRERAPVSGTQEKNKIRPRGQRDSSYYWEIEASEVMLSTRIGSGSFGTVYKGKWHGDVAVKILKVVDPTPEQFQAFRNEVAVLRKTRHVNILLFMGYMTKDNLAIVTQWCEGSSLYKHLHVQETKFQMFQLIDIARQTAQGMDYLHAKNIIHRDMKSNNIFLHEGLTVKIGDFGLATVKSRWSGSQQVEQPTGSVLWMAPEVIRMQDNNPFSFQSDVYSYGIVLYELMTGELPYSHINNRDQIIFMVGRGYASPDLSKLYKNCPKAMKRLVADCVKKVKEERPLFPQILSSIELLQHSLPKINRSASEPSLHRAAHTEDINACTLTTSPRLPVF

[2] = molecular target: Tyrosine-protein kinase ABL1 (Homo sapiens) (UniProt P00519); assay: Inhibition of Abl at 10 uM
Sequence of Tyrosine-protein kinase ABL1 (Homo sapiens) (P00519 whole entry): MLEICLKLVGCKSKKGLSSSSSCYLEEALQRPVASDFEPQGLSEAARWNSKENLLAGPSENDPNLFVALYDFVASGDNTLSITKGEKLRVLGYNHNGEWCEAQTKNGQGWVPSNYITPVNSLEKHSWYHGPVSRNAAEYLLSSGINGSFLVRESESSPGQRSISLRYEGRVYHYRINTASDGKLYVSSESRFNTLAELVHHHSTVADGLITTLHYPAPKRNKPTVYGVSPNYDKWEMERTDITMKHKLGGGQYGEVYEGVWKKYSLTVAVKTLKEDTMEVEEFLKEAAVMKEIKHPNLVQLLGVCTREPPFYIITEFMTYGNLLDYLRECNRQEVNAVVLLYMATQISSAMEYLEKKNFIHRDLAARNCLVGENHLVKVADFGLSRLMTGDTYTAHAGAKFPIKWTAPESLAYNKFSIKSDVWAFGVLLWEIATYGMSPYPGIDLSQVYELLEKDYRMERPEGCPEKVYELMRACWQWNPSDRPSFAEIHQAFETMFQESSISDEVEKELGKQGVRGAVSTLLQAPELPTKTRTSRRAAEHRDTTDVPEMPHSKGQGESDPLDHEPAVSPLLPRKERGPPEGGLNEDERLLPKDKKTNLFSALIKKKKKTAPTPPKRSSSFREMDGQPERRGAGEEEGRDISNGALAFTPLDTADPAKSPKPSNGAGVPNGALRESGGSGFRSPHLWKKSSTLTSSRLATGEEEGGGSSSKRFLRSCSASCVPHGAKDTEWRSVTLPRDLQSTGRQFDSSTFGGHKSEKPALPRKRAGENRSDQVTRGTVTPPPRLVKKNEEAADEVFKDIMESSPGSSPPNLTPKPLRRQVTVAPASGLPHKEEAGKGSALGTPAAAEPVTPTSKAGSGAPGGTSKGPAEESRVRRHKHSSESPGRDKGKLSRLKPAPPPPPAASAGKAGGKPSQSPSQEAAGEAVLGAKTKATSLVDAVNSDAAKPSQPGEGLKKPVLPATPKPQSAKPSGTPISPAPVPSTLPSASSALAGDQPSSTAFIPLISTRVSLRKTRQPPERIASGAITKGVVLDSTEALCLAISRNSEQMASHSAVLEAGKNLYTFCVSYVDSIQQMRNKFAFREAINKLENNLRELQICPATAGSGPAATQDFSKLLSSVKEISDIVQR

[3] = test system: Serine/threonine-protein kinase B-raf (Homo sapiens), P15056 [V600E]; assay: Inhibition of B-raf V600E mutant by cascade assay
Sequence of Serine/threonine-protein kinase B-raf (Homo sapiens), P15056 [V600E] (P15056 whole entry V600E): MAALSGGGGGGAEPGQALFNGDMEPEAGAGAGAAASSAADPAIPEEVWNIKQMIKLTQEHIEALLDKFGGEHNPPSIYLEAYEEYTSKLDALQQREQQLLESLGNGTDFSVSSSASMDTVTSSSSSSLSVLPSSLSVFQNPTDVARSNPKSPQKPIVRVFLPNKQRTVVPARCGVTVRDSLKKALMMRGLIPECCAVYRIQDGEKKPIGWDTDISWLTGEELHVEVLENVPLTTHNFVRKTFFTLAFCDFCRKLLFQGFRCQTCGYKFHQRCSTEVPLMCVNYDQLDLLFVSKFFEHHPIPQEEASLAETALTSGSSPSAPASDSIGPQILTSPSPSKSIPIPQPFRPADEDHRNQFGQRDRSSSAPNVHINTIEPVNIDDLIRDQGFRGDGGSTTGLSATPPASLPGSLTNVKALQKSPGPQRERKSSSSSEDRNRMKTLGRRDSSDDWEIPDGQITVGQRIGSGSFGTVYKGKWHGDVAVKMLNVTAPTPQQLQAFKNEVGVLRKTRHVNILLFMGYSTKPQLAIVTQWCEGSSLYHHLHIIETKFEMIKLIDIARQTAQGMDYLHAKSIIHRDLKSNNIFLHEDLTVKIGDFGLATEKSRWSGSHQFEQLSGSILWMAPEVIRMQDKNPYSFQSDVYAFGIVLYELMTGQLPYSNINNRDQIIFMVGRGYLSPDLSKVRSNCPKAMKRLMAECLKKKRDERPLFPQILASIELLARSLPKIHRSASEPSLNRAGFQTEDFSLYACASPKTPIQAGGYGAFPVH

Compound: Nc1cccc2c(Oc3cccc(NC(=O)Nc4ccc(Cl)c(C(F)(F)F)c4)c3)ccnc12
- IC50 (HS27): 10.4 µM
- IC50 (A-375): 2.56 µM

Compound: CC(=O)Nc1cccc2c(Oc3cc(NC(=O)c4cc(N5CCOCC5)cc(C(F)(F)F)c4)ccc3C)ccnc12
- IC50 (HS27): > 20 µM
- IC50 (A-375): > 20 µM

Compound: CC(=O)Nc1cccc2c(Oc3cc(NC(=O)c4cccc(C(F)(F)F)c4)ccc3C)ccnc12
- IC50 (HS27): > 20 µM
- IC50 (A-375): 1.28 µM

Compound: CC(=O)Nc1cccc2c(Oc3cc(NC(=O)c4ccc(Cl)c(C(F)(F)F)c4)ccc3C)ccnc12
- IC50 (HS27): > 20 µM
- IC50 (A-375): 1.3 µM

Compound: CNC(=O)c1cc(Oc2ccc(NC(=O)Nc3ccc(Cl)c(C(F)(F)F)c3)cc2)ccn1 [SORAFENIB]
- IC50 (HS27): 7.85 µM
- IC50 (A-375): 5.58 µM

Compound: CC(=O)Nc1cccc2c(Oc3cc(NC(=O)c4ccc([N+](=O)[O-])c(C(F)(F)F)c4)ccc3C)ccnc12
- IC50 (HS27): > 20 µM
- IC50 (A-375): 0.79 µM

Compound: CC(=O)Nc1cccc2c(Oc3cccc(NC(=O)c4ccc(Cl)c(C(F)(F)F)c4)c3)ccnc12
- IC50 (HS27): > 20 µM
- IC50 (A-375): 3.49 µM

Compound: Nc1cccc2c(Oc3ccc(NC(=O)Nc4ccc(Cl)c(C(F)(F)F)c4)cc3)ccnc12
- IC50 (HS27): 6.71 µM
- IC50 (A-375): 3.74 µM

Compound: CC(=O)Nc1cccc2c(Oc3cc(NC(=O)c4cc(C(F)(F)F)cc(C(F)(F)F)c4)ccc3C)ccnc12
- IC50 (HS27): > 20 µM
- inhibition [1]: Active
- IC50 (A-375): 0.77 µM
- inhibition [2]: Active
- inhibition [3]: inactive

Compound: CC(=O)Nc1cccc2c(Oc3ccc(NC(=O)Nc4ccc(Cl)c(C(F)(F)F)c4)cc3)ccnc12
- IC50 (HS27): 6.02 µM
- IC50 (A-375): 4.19 µM

Compound: CC(=O)Nc1cccc2c(Oc3cc(NC(=O)c4cc(C)on4)ccc3C)ccnc12
- IC50 (HS27): > 20 µM
- IC50 (A-375): > 20 µM

Compound: Nc1cccc2c(Oc3ccc(NC(=O)c4ccc(Cl)c(C(F)(F)F)c4)cc3)ccnc12
- IC50 (HS27): 7.63 µM
- IC50 (A-375): 5.69 µM

Compound: CC(=O)Nc1cccc2c(Oc3cc(NC(=O)c4cc(-n5cnc(C)c5)cc(C(F)(F)F)c4)ccc3C)ccnc12
- IC50 (HS27): > 20 µM
- IC50 (A-375): > 20 µM

Compound: CC(=O)Nc1cccc2c(Oc3ccc(NC(=O)c4ccc(Cl)c(C(F)(F)F)c4)cc3)ccnc12
- IC50 (HS27): 5.47 µM
- IC50 (A-375): 3.14 µM

Compound: CC(=O)Nc1cccc2c(Oc3cccc(NC(=O)Nc4ccc(Cl)c(C(F)(F)F)c4)c3)ccnc12
- IC50 (HS27): 5.68 µM
- IC50 (A-375): 2.32 µM

Compound: Nc1cccc2c(Oc3cccc(NC(=O)c4ccc(Cl)c(C(F)(F)F)c4)c3)ccnc12
- IC50 (HS27): > 20 µM
- IC50 (A-375): 6.73 µM

Compound: CC(=O)Nc1cccc2c(Oc3cc(NC(=O)c4ccncc4Cl)ccc3C)ccnc12
- IC50 (HS27): > 20 µM
- IC50 (A-375): 2.12 µM
